Earlier results as cited in patent US20060182816A1, “Hypobromous acid system” (priority 2005, published 2006).
Read-outs that look alike come from different tables or passages of the source. One block for each molecule: values may come before it.

Tests used:
[1] = not given; remark: listed apart in the source

SMILES: OBr [Hypobromite ion]
% bromine as OBr− (pH 6.0): 0.0%
% bromine as OBr− (pH 6.5): 0.6%
% bromine as OBr− (pH 7.0): 2%
% bromine as OBr− (pH 7.5): 6%
% bromine as OBr− (pH 8.0): 17%
% bromine as OBr− (pH 8.5): 43%

pKa [1]: about 7.53
SMILES: OCl [HOCl, hypochlorous acid]

SMILES: OBr [Hypobromous acid]
% bromine as HOBr (pH 6.0): 100%
% bromine as HOBr (pH 6.5): 99.4%
% bromine as HOBr (pH 7.0): 98%
% bromine as HOBr (pH 7.5): 94%
% bromine as HOBr (pH 8.0): 83%
% bromine as HOBr (pH 8.5): 57%
